Results: the OligoGym collection
HELM strings list units from the 5' end as sugar, base in round brackets, then linkage (d deoxyribose, r ribose, m 2'-O-methyl, p phosphodiester). Strings are as the collection lists them, not checked against the first reports. ss, as = sense and antisense strand; [lna] = locked nucleic acid (LNA); [s4r] = 4'-thioribose; [fl2r] = 2'-fluoro

Conditions: siRNA
Further: test system not given here.

Going from “RNA1{r(G)p.r(U)p.r(C)p.m(U)p.r(A)p.r(U)p.r(G)p.r(C)p.r(C)p.r(A)p.r(A)p.r(G)p.r(A)p.r(A)p.r(G)p.r(G)p.r(G)p.r(A)p.r(G)p.r(T)p.r(T)}|RNA2{r(C)p.r(U)p.r(C)p.r(C)p.r(C)p.r(U)p.r(U)p.r(C)p.r(U)p.r(U)p.r(G)p.r(G)p.r(C)p.r(A)p.m(U)p.r(A)p.r(G)p.r(A)p.r(C)p.r(T)p.r(T)}$$$RNA1{StrandType:ss}|RNA2{StrandType:as}$” to “RNA1{m(C)p.r(U)p.m(C)p.r(C)p.m(U)p.r(U)p.m(C)p.r(A)p.m(U)p.r(U)p.m(C)p.r(C)p.m(A)p.r(G)p.m(C)p.r(C)p.m(U)p.r(A)p.m(U)p.r(T)p.r(T)}|RNA2{r(A)p.r(U)p.r(A)p.r(G)p.r(G)p.r(C)p.r(U)p.r(G)p.r(G)p.r(A)p.r(A)p.r(U)p.r(G)p.r(A)p.r(A)p.r(G)p.r(G)p.r(A)p.r(G)p.r(T)p.r(T)}$$$RNA1{StrandType:ss}|RNA2{StrandType:as}$”, the target mRNA knockdown falls from 76% to 51%.

Going from “RNA1{r(A)p.r(U)p.r(C)p.r(G)p.r(U)p.r(C)p.r(G)p.r(U)p.m(C)p.r(A)p.r(G)p.r(G)p.r(G)p.m(U)p.r(A)p.r(A)p.r(G)p.r(G)p.r(U)p.r(T)p.r(T)}|RNA2{r(A)p.r(C)p.r(C)p.r(U)p.m(U)p.r(A)p.r(C)p.r(C)p.r(C)p.m(U)p.r(G)p.r(A)p.r(C)p.r(G)p.r(A)p.r(C)p.r(G)p.r(A)p.r(U)p.r(T)p.r(T)}$$$RNA1{StrandType:ss}|RNA2{StrandType:as}$” to “RNA1{[s4r](C)p.[s4r](G)p.[s4r](U)p.[s4r](A)p.r(C)p.r(G)p.r(C)p.r(G)p.r(G)p.r(A)p.r(A)p.r(U)p.r(A)p.r(C)p.r(U)p.r(U)p.r(C)p.r(G)p.r(A)p.r(T)p.r(T)}|RNA2{r(U)p.r(C)p.r(G)p.r(A)p.r(A)p.r(G)p.r(U)p.r(A)p.r(U)p.r(U)p.r(C)p.r(C)p.r(G)p.r(C)p.r(G)p.r(U)p.r(A)p.r(C)p.r(G)p.r(T)p.r(T)}$$$RNA1{StrandType:ss}|RNA2{StrandType:as}$”, the target mRNA knockdown rises from 47% to 94.2%.

First: RNA1{r(A)p.r(G)p.r(C)p.r(U)p.r(C)p.r(U)p.r(U)p.m(U)p.r(G)p.r(U)p.m(C)p.r(A)p.r(C)p.m(C)p.r(U)p.m(C)p.r(U)p.r(C)p.r(U)p.r(T)p.r(T)}|RNA2{r(A)p.r(G)p.r(A)p.r(G)p.r(A)p.r(G)p.r(G)p.m(U)p.r(G)p.r(A)p.m(C)p.r(A)p.r(A)p.r(A)p.r(G)p.r(A)p.r(G)p.r(C)p.r(U)p.r(T)p.r(T)}$$$RNA1{StrandType:ss}|RNA2{StrandType:as}$
Second: RNA1{r(A)p.r(G)p.r(G)p.r(A)p.r(G)p.r(A)p.r(C)p.r(C)p.r(G)p.[fl2r](U)p.r(G)p.r(A)p.[fl2r](C)p.r(A)p.r(U)p.r(U)p.r(U)p.r(C)p.r(G)p.r(T)p.r(T)}|RNA2{r(C)p.r(G)p.r(A)p.r(A)p.r(A)p.[fl2r](U)p.r(G)p.r(U)p.r(C)p.r(A)p.r(C)p.r(G)p.r(G)p.r(U)p.r(C)p.r(U)p.r(C)p.r(C)p.r(U)p.r(T)p.r(T)}$$$RNA1{StrandType:ss}|RNA2{StrandType:as}$
The target mRNA knockdown of the first is lower: 34% for the first, 72% for the second.

Compared with “RNA1{[s4r](A)p.[s4r](A)p.[s4r](A)p.[s4r](C)p.r(A)p.r(U)p.r(G)p.r(C)p.r(A)p.r(G)p.r(A)p.r(A)p.r(A)p.r(A)p.r(U)p.r(G)p.r(C)p.r(U)p.r(G)p.r(T)p.r(T)}|RNA2{r(C)p.r(A)p.r(G)p.r(C)p.r(A)p.r(U)p.r(U)p.r(U)p.r(U)p.r(C)p.r(U)p.r(G)p.r(C)p.r(A)p.r(U)p.[s4r](G)p.[s4r](U)p.[s4r](U)p.[s4r](U)p.r(T)p.r(T)}$$$RNA1{StrandType:ss}|RNA2{StrandType:as}$”, “RNA1{[fl2r](A)p.r(C)p.[fl2r](G)p.r(G)p.[fl2r](C)p.r(U)p.[fl2r](C)p.r(G)p.[fl2r](C)p.r(U)p.[fl2r](A)p.r(C)p.[fl2r](C)p.r(C)p.[fl2r](U)p.r(C)p.[fl2r](G)p.r(A)p.r(C)p.r(T)p.r(T)}|RNA2{r(G)p.r(U)p.r(C)p.r(G)p.r(A)p.r(G)p.r(G)p.r(G)p.r(U)p.r(A)p.r(G)p.r(C)p.r(G)p.r(A)p.r(G)p.r(C)p.r(C)p.r(G)p.r(U)p.r(T)p.r(T)}$$$RNA1{StrandType:ss}|RNA2{StrandType:as}$” is lower in target mRNA knockdown: 80.7% for the first, 72% for the second.

Compared with “RNA1{r(G)p.r(A)p.r(C)p.[fl2r](C)p.r(A)p.r(C)p.r(G)p.r(A)p.r(A)p.r(G)p.r(A)p.r(G)p.r(U)p.[fl2r](U)p.r(A)p.r(A)p.r(C)p.r(C)p.r(C)p.r(T)p.r(T)}|RNA2{r(G)p.r(G)p.r(G)p.r(U)p.[fl2r](U)p.r(A)p.r(A)p.r(C)p.r(U)p.r(C)p.r(U)p.r(U)p.r(C)p.r(G)p.[fl2r](U)p.r(G)p.r(G)p.r(U)p.r(C)p.r(T)p.r(T)}$$$RNA1{StrandType:ss}|RNA2{StrandType:as}$”, “RNA1{r(A)p.r(A)p.r(A)p.r(C)p.r(C)p.r(U)p.r(C)p.r(A)p.r(G)p.r(C)p.r(C)p.r(C)p.m(U)p.m(A)p.r(A)p.r(C)p.r(G)p.r(G)p.r(U)p.r(T)p.r(T)}|RNA2{r(A)p.r(C)p.r(C)p.r(G)p.r(U)p.m(U)p.r(A)p.r(G)p.r(G)p.r(G)p.r(C)p.r(U)p.r(G)p.r(A)p.r(G)p.r(G)p.r(U)p.r(U)p.r(U)p.r(T)p.r(T)}$$$RNA1{StrandType:ss}|RNA2{StrandType:as}$” is lower in target mRNA knockdown: 85% for the first, 69% for the second.

Going from “RNA1{r(G)p.m(C)p.r(A)p.r(G)p.r(A)p.r(G)p.r(A)p.r(A)p.m(U)p.m(C)p.m(U)p.r(A)p.m(C)p.m(C)p.m(U)p.m(U)p.m(U)p.m(C)p.m(C)p.r(T)p.r(T)}|RNA2{r(G)p.r(G)p.r(A)p.r(A)p.r(A)p.r(G)p.r(G)p.m(U)p.r(A)p.r(G)p.r(A)p.m(U)p.m(U)p.m(C)p.m(U)p.m(C)p.m(U)p.r(G)p.m(C)p.r(T)p.r(T)}$$$RNA1{StrandType:ss}|RNA2{StrandType:as}$” to “RNA1{d(G)p.d(C)p.d(A)p.d(G)p.d(C)p.d(A)p.d(C)p.d(G)p.d(A)p.d(C)p.d(U)p.d(U)p.d(C)p.d(U)p.d(U)p.d(C)p.d(A)p.d(A)p.d(G)p.r(T)p.r(T)}|RNA2{r(C)p.r(U)p.r(U)p.r(G)p.r(A)p.r(A)p.r(G)p.r(A)p.r(A)p.r(G)p.r(U)p.r(C)p.r(G)p.r(U)p.r(G)p.r(C)p.r(U)p.r(G)p.r(C)p.r(T)p.r(T)}$$$RNA1{StrandType:ss}|RNA2{StrandType:as}$”, the target mRNA knockdown rises from 13% to 38%.

Compared with “RNA1{r(G)p.r(U)p.r(A)p.r(U)p.r(C)p.r(C)p.r(G)p.r(A)p.r(A)p.r(G)p.r(A)p.r(C)p.r(G)p.r(A)p.r(A)p.r(G)p.r(C)p.m(U)p.r(A)p.r(T)p.r(T)}|RNA2{m(U)p.r(A)p.r(G)p.r(C)p.r(U)p.r(U)p.r(C)p.r(G)p.r(U)p.r(C)p.r(U)p.r(U)p.r(C)p.r(G)p.r(G)p.r(A)p.m(U)p.r(A)p.r(C)p.r(T)p.r(T)}$$$RNA1{StrandType:ss}|RNA2{StrandType:as}$”, “RNA1{r(A)p.r(A)p.r(C)p.r(C)p.r(C)p.r(A)p.r(C)p.r(C)p.r(A)p.r(C)p.r(A)p.[fl2r](G)p.r(C)p.[fl2r](U)p.[fl2r](A)p.[fl2r](G)p.r(A)p.r(A)p.r(C)p.r(U)p.r(U)}|RNA2{r(A)p.r(A)p.r(G)p.r(U)p.r(U)p.r(C)p.r(U)p.r(A)p.r(G)p.r(C)p.r(U)p.r(G)p.r(U)p.r(G)p.r(G)p.r(U)p.r(G)p.r(G)p.r(G)p.r(U)p.r(U)}$$$RNA1{StrandType:ss}|RNA2{StrandType:as}$” is lower in target mRNA knockdown: 95% for the first, 75% for the second.

Compared with “RNA1{m(A)p.r(A)p.m(A)p.r(C)p.m(G)p.r(A)p.m(G)p.r(A)p.m(G)p.r(A)p.m(G)p.r(C)p.m(C)p.r(C)p.m(A)p.r(C)p.m(C)p.r(U)p.m(U)p.r(T)p.r(T)}|RNA2{r(A)p.r(A)p.r(G)p.r(G)p.r(U)p.r(G)p.r(G)p.r(G)p.m(C)p.r(U)p.m(C)p.r(U)p.m(C)p.r(U)p.m(C)p.r(G)p.r(U)p.r(U)p.r(U)p.r(T)p.r(T)}$$$RNA1{StrandType:ss}|RNA2{StrandType:as}$”, “RNA1{r(C)p.r(U)p.r(U)p.r(A)p.r(C)p.r(G)p.r(C)p.r(U)p.r(G)p.r(A)p.r(G)p.r(U)p.r(A)p.r(C)p.r(U)p.r(U)p.r(C)p.r(G)p.r(A)p.r(T)p.r(T)}|RNA2{r(T)p.r(C)p.r(G)p.r(A)p.r(A)p.r(G)p.r(U)p.r(A)p.r(C)p.r(U)p.r(C)p.r(A)p.r(G)p.r(C)p.r(G)p.[lna](T)p.r(A)p.r(A)p.r(G)p.[lna](T)p.[lna](T)}$$$RNA1{StrandType:ss}|RNA2{StrandType:as}$” is higher in target mRNA knockdown: 37% for the first, 83% for the second.

Compared with “RNA1{r(C)p.r(U)p.r(U)p.r(A)p.r(C)p.r(G)p.r(C)p.r(U)p.r(G)p.r(A)p.r(G)p.r(U)p.r(A)p.r(C)p.r(U)p.r(U)p.r(C)p.r(G)p.r(A)p.r(T)p.r(T)}|RNA2{r(T)p.r(C)p.[lna](G)p.r(A)p.r(A)p.r(G)p.r(U)p.r(A)p.r(C)p.r(U)p.r(C)p.r(A)p.r(G)p.r(C)p.r(G)p.r(U)p.r(A)p.r(A)p.r(G)p.[lna](T)p.[lna](T)}$$$RNA1{StrandType:ss}|RNA2{StrandType:as}$”, “RNA1{[fl2r](G)p.r(A)p.[fl2r](G)p.r(U)p.[fl2r](A)p.r(U)p.[fl2r](U)p.r(U)p.[fl2r](C)p.r(C)p.[fl2r](G)p.r(C)p.[fl2r](U)p.r(G)p.[fl2r](G)p.r(A)p.[fl2r](A)p.r(C)p.[fl2r](U)p.r(T)p.r(T)}|RNA2{r(A)p.r(G)p.r(U)p.r(U)p.r(C)p.r(C)p.r(A)p.r(G)p.r(C)p.r(G)p.r(G)p.r(A)p.r(A)p.r(A)p.r(U)p.r(A)p.r(C)p.r(U)p.r(C)p.r(T)p.r(T)}$$$RNA1{StrandType:ss}|RNA2{StrandType:as}$” is lower in target mRNA knockdown: 90% for the first, 21% for the second.

Going from “RNA1{r(G)p.r(C)p.r(U)p.r(U)p.r(U)p.r(A)p.r(A)p.r(G)p.r(G)p.r(A)p.r(A)p.r(C)p.r(U)p.r(G)p.r(G)p.r(A)p.r(A)p.r(G)p.r(G)p.r(T)p.r(T)}|RNA2{r(C)p.r(C)p.r(U)p.r(U)p.r(C)p.r(C)p.r(A)p.r(G)p.r(U)p.r(U)p.r(C)p.r(C)p.r(U)p.m(U)p.r(A)p.r(A)p.r(A)p.r(G)p.r(C)p.r(T)p.r(T)}$$$RNA1{StrandType:ss}|RNA2{StrandType:as}$” to “RNA1{r(C)p.r(U)p.r(C)p.r(A)p.r(A)p.r(A)p.r(U)p.r(C)p.r(A)p.r(A)p.r(G)p.r(G)p.r(C)p.r(C)p.r(G)p.r(G)p.r(A)p.r(G)p.r(U)p.r(T)p.r(T)}|RNA2{r(A)p.r(C)p.r(U)p.r(C)p.r(C)p.r(G)p.r(G)p.r(C)p.r(C)p.r(U)p.m(U)p.r(G)p.r(A)p.r(U)p.r(U)p.m(U)p.r(G)p.r(A)p.r(G)p.r(T)p.r(T)}$$$RNA1{StrandType:ss}|RNA2{StrandType:as}$”, the target mRNA knockdown rises from 37% to 85%.
